The text below walks through data of US20250230165A1, “HETEROCYCLIC COMPOUNDS FOR USE IN THE TREATMENT OF CANCER” (ARTIOS PHARMA LIMITED, priority 2021, published 2025).

This experiment deals with T1, Human Polθ polymerase domain (aa1820-2590) (Homo sapiens, UniProt O75417).
T1 construct: Human Polθ polymerase domain (aa1820-2590) was expressed in E. coli; made in house; host or cells: E. coli
T1 sequence (O75417 1820-2590): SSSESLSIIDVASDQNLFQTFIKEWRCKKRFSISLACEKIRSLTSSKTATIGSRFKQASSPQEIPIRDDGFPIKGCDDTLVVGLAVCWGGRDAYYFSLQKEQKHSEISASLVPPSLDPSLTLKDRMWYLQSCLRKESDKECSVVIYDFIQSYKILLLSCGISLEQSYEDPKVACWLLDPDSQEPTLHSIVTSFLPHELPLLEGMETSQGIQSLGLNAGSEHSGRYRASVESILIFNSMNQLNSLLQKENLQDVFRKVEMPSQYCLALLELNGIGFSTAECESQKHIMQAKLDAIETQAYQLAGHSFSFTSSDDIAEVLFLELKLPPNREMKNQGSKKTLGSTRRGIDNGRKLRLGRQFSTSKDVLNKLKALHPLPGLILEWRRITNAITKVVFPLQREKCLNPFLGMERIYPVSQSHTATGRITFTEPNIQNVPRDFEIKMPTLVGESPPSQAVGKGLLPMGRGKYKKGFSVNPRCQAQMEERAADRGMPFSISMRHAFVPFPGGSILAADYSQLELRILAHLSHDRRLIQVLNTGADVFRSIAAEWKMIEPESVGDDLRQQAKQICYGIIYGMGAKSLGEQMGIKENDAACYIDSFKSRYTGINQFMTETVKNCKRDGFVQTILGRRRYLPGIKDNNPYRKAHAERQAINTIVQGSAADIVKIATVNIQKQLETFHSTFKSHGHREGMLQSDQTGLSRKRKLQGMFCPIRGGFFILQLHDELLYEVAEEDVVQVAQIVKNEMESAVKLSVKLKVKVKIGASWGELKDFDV
The experiment in a line: Polθ Polymerase Domain Kinact/KI Assay (PicoGreen). It counts as biochemical. As to conditions: 0.8 nM Polθ, 100 nM DNA substrate, kobs vs [I] fit for 2-step covalent inhibitor. An outline of the steps:
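Enzyme 0.8 nM, annealed DNA substrate 100 nM, […]; 25 mM Tris pH 7.5, 5% glycerol, 0.01% Triton X-100, 0.1 mg/ml BSA, 1 mM DTT, 1% DMSO. Quench with EDTA at timepoints to 60 min; PicoGreen read. kobs from time courses → Kinact/KI.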
As to `C=C(CN(C)C)C(=O)N1CC(COCCN2C[C@H]3CC(=O)N(c4cc(C(F)(F)F)cc(C)n4)[C@@H]3C(=O)N(C)c3cccc(Cl)c32)C1` [Example 162, (3aR,11aS)-6-chloro-5-(2-((1-(2-((dimethylamino)methyl)acryloyl)azetidin-3-yl)methoxy)ethyl)-10-methyl-1-(6-methyl-4-(trifluoromethyl)pyridin-2-yl)-1,3a,4,5,10,11a-hexahydro-2H-benzo[b]pyrrolo[2,3-f][1,4]diazocine-2,11(3H)-dione], the Kinact/Kl was 2.95e+06 M⁻¹ s⁻¹.

With `C/C=C(\CN(C)C)C(=O)N1CC(OCCCN2C[C@H]3CC(=O)N(c4cc(C(F)(F)F)cc(C)n4)[C@@H]3C(=O)N(C)c3cccc(F)c32)C1` [Example 80, (3aR,11aS)-5-(3-((1-((E)-2-((dimethylamino)methyl)but-2-enoyl)azetidin-3-yl)oxy)propyl)-6-fluoro-10-methyl-1-(6-methyl-4-(trifluoromethyl)pyridin-2-yl)-1,3a,4,5,10,11a-hexahydro-2H-benzo[b]pyrrolo[2,3-f][1,4]diazocine-2,11(3H)-dione], the Kinact/Kl was 810000 M⁻¹ s⁻¹.

Regarding `C=CC(=O)N1C[C@@H](n2cc(CN3C[C@H]4CC(=O)N(c5cc(C(F)(F)F)cc(C)n5)[C@@H]4C(=O)N(C)c4cccc(C)c43)cn2)[C@@H](F)C1` (single isomer, unassigned) [Example 325c], the Kinact/Kl was 980000 M⁻¹ s⁻¹.

In turn, `C=CC(=O)N1Cc2nc(CN3C[C@H]4CC(=O)N(c5cc(C(F)(F)F)cc(C)n5)[C@@H]4C(=O)N(C)c4cccc(Cl)c43)ccc2C1CC#N` (single isomer, unassigned) [Example 290b] came in with a Kinact/Kl of 1.3e+06 M⁻¹ s⁻¹.

Consider `C=CC(=O)N1CC(N2CCN(CCN3C[C@H]4CC(=O)N(c5cc(C(F)(F)F)cc(C)n5)[C@@H]4C(=O)N(C)c4cccc(C)c43)CC2)C1` [Example 115, (3aR,11aS)-5-(2-(4-(1-acryloylazetidin-3-yl)piperazin-1-yl)ethyl)-6,10-dimethyl-1-(6-methyl-4-(trifluoromethyl)pyridin-2-yl)-1,3a,4,5,10,11a-hexahydro-2H-benzo[b]pyrrolo[2,3-f][1,4]diazocine-2,11(3H)-dione], for which the Kinact/Kl amounted to 2.35e+06 M⁻¹ s⁻¹.

For `C=CC(=O)N1CC(N2CCC(F)(CN3C[C@H]4CC(=O)N(c5cc(C(F)(F)F)cc(C)n5)[C@@H]4C(=O)N(C)c4cccc(Cl)c43)CC2)C1` [Example 217, (3aR,11aS)-5-((1-(1-acryloylazetidin-3-yl)-4-fluoropiperidin-4-yl)methyl)-6-chloro-10-methyl-1-(6-methyl-4-(trifluoromethyl)pyridin-2-yl)-1,3a,4,5,10,11a-hexahydro-2H-benzo[b] pyrrolo[2,3-f] [1,4]diazocine-2,11(3H)-dione], the Kinact/Kl was 1.59e+06 M⁻¹ s⁻¹.

For the molecule `C=CC(=O)N1CCN2C[C@@H](CN3C[C@H]4CC(=O)N(c5cc(C(F)(F)F)cc(C)n5)[C@@H]4C(=O)N(C)c4cccc(F)c43)N(C)CC2C1` (single isomer, unassigned) [Example 140b], the Kinact/Kl was 230000 M⁻¹ s⁻¹.

`C=CC(=O)N1CC(N2CCN(C(=O)CN3C[C@H]4CC(=O)N(c5cc(C(F)(F)F)cc(C)n5)[C@@H]4C(=O)N(C)c4cccc(Cl)c43)CC2)C1` [Example 75, (3aR,11aS)-5-(2-(4-(1-acryloylazetidin-3-yl)piperazin-1-yl)-2-oxoethyl)-6-chloro-10-methyl-1-(6-methyl-4-(trifluoromethyl)pyridin-2-yl)-1,3a,4,5,10,11a-hexahydro-2H-benzo[b]pyrrolo[2,3-f][1,4]diazocine-2,11(3H)-dione]: the Kinact/Kl came to 1.32e+06 M⁻¹ s⁻¹.

The molecule `C=CC(=O)N1C[C@@H]2CN(CCN3C[C@H]4CC(=O)N(c5cc(C(F)(F)F)cc(C)n5)[C@@H]4C(=O)N(C)c4cccc(F)c43)CCN2[C@@H](C)C1` [Example 64b, (3aR,11aS)-5-(2-((6S/R,9aS/R)-8-acryloyl-6-methyloctahydro-2H-pyrazino[1,2-a]pyrazin-2-yl)ethyl)-6-fluoro-10-methyl-1-(6-methyl-4-(trifluoromethyl)pyridin-2-yl)-1,3a,4,5,10,11a-hexahydro-2H-benzo[b]pyrrolo[2,3-f][1,4]diazocine-2,11(3H)-dione] registered a Kinact/Kl of 270000 M⁻¹ s⁻¹.

Regarding `C=CC(=O)N1Cc2nc(CN3C[C@H]4CC(=O)N(c5cc(C(F)(F)F)cc(C)n5)[C@@H]4C(=O)N(C)c4cccc(C)c43)oc2C1` [Example 316, (3aR,11aS)-5-((5-acryloyl-5,6-di-hydro-4H-pyrrolo [3,4-d]oxazol-2-yl)-methyl)-6,10-dimethyl-1-(6-meth-yl-4-(trifluorometh-yl)pyridin-2-yl)-1,3a,4,5,10,11a-hexahydro-2H-benzo[b]pyrrolo [2,3-f][1,4]diazo-cine-2,11(3H)-dione], the Kinact/Kl turned out to be 610000 M⁻¹ s⁻¹.

For `C=CC(=O)N1CCN2CC(=O)N(CCN3C[C@H]4CC(=O)N(c5cc(C(F)(F)F)cc(C)n5)[C@@H]4C(=O)N(C)c4cccc(F)c43)C[C@@H]2C1` [Example 47, (3aR,11aS)-5-(2-((S)-8-acryloyl-3-oxooctahydro-2H-pyrazino[1,2-a]pyrazin-2-yl)ethyl)-6-fluoro-10-methyl-1-(6-methyl-4-(trifluoromethyl)pyridin-2-yl)-1,3a,4,5,10,11a-hexahydro-2H-benzo[b]pyrrolo[2,3-f][1,4]diazocine-2,11(3H)-dione], the Kinact/Kl came to 140000 M⁻¹ s⁻¹.

With `C=CC(=O)N1CC(n2cnc(CN3C[C@H]4CC(=O)N(c5cc(C(F)(F)F)cc(C)n5)[C@@H]4C(=O)N(C)c4cc(F)ccc43)c2)C1` [Example 40, (3aR,11aS)-5-((1-(1-acryloylazetidin-3-yl)-1H-imidazol-4-yl)methyl)-8-fluoro-10-methyl-1-(6-methyl-4-(trifluoromethyl)pyridin-2-yl)-1,3a,4,5,10,11a-hexahydro-2H-benzo[b]pyrrolo[2,3-f][1,4]diaocine-2,11(3H)-dione], the Kinact/Kl is 850000 M⁻¹ s⁻¹.

`C=CC(=O)N1CC2(CN(CCN3C[C@H]4CC(=O)N(c5cc(C(F)(F)F)cc(C)n5)[C@@H]4C(=O)N(C)c4cccc(Cl)c43)CC2C#N)C1` (single isomer, unassigned) [Example 117a] showed a Kinact/Kl of 1.89e+06 M⁻¹ s⁻¹.

As to `C=CC(=O)Nc1ccc(CN2C[C@H]3CC(=O)N(c4cc(C(F)(F)F)cc(C)n4)[C@@H]3C(=O)N(C)c3cccc(Cl)c32)nc1` [Example 283, N-(6-(((3aR,11aS)-6-chloro-10-methyl-1-(6-methyl-4-(trifluoromethyl)pyridin-2-yl)-2,11-dioxo-1,2,3,3a,4,10,11,11a-octahydro-5H-benzo[b]pyrrolo[2,3-f][1,4]diazocin-5-yl)methyl)pyridin-3-yl)acrylamide], the Kinact/Kl was 950000 M⁻¹ s⁻¹.

`Cc1cc(C(F)(F)F)cc(N2C(=O)C[C@@H]3CN(CCCOC4CN(C(=O)/C=C/CN(C)C)C4)c4c(Cl)cccc4N(C)C(=O)[C@H]32)n1` [Example 44, (3aR,11aS)-6-chloro-5-(3-((1-((E)-4-(dimethylamino)but-2-enoyl)azetidin-3-yl)oxy)propyl)-10-methyl-1-(6-methyl-4-(trifluoromethyl)pyridin-2-yl)-1,3a,4,5,10,11a-hexahydro-2H-benzo[b]pyrrolo[2,3-f][1,4]diazocine-2,11(3H)-dione] yielded a Kinact/Kl of 2.22e+06 M⁻¹ s⁻¹.

In the case of `C=CC(=O)N1Cc2c(CN3C[C@H]4CC(=O)N(c5cc(C(F)(F)F)cc(C)n5)[C@@H]4C(=O)N(C)c4cccc(C)c43)nn(C)c2C1` [Example 317, (3aR,11aS)-5-((5-acryloyl-1-methyl-1,4,5,6-tetrahydro-pyrrolo[3,4-c]pyr-azol-3-yl)methyl)-6,10-dimethyl-1-(6-methyl-4-(trifluoro-methyl)pyridin-2-yl)-1,3a,4,5,10,11a-hexahydro-2H-benzo[b]pyrrolo [2,3-f][1,4]diazo-cine-2,11(3H)-dione], the Kinact/Kl is 230000 M⁻¹ s⁻¹.

Molecule `C=CC(=O)N1CCN(CCN2C[C@H]3CC(=O)N(c4cc(C(F)(F)F)cc(C)n4)[C@@H]3C(=O)N(C)c3cccc(Cl)c32)CC1CC#N` (mixture of isomers) [Example 258a, 2-((R/S)-1-acryloyl-4-(2-((3aR,11aS)-6-chloro-10-methyl-1-(6-methyl-4-(trifluoromethyl)pyridin-2-yl)-2,11-dioxo-1,2,3,3a,4,10,11,11a-octahydro-5H-benzo[b]pyrrolo[2,3-f][1,4]diazocin-5-yl)ethyl)piperazin-2-yl)acetonitrile] had a Kinact/Kl of 1.65e+06 M⁻¹ s⁻¹.
